{"source": "patent US4584187A", "about": "“Imaging agent and method of use” (priority 1981, dated 1986)", "key": {"[1]": {"assay": "Stability of radiolabeled compound on storage in solution", "type": "physicochemical", "details": "4° C., dark", "source_text": "The radiochemical purity was greater than 98% as determined by thin-layer chromotography on silica gel G using two solvent systems: (1) 1/l ethyl acetate: ethanol (Rf=0.0; Rf of free radioiodide=0.60); (2) 3/l n-propanol: 10% ammonium hydroxide (Rf=0.15, Rf of free radioiodide=0.75, Rf of meta-iodobenzylamine=0.35). […] Final […]."}, "[2]": {"tested_on": "adrenergic neurons of the heart and chromaffin granules of the adrenal medulla", "assay": "Localization in adrenergic tissues", "type": "in vivo"}, "[3]": {"set-up": "species or system rats", "details": "rat, in vivo, iv, 30 min", "method": "(§1) Biological tissue distribution studies were performed on rats, dogs and monkeys injected intravenously with 25 μCi and 100 μCi respectively of I-125 iodobenzylguanidine in an average volume of 0.3 ml, 2 ml, and 1 ml respectively. Representative samples of tissues were counted in an autogamma counter with corrections made for radioactive decay, background, and counter efficiency. To normalize for differences in animal weights, tissue concentrations are expressed as percent kilogram dose per gram."}, "[4]": {"assay": "Biological tissue distribution of I-125 iodobenzylguanidine in dogs", "type": "in vivo, Female Mongrel Dogs", "method": "as §1"}, "[5]": {"set-up": "species or system Rhesus Monkeys", "details": "rhesus monkey, in vivo, iv, 180 min", "method": "as §1"}, "[6]": {"tested_on": "Pheochromocytomas (PHEO)", "assay": "Scintigraphic localization of pheochromocytomas with I-131-mIBG in patients and controls", "type": "in vivo, human", "method": "Pheochromocytomas (PHEO) were localized with I-131-meta-iodobenzylguanidine(^131 I-mIBG). Five hypertensive patients without PHEO served as controls. I-131-mIBG, 0.5 mCi, was given i.v. Images of areas of interest were made at 24, 48 and 72 hours post-injection. Adrenal (tumor) uptake was estimated with a semioperator-independent computer algorithm. All patients with sporadic PHEO gave clinical and hormonal evidence of their disease."}, "[7]": {"tested_on": "adrenal medulla", "assay": "MIBG adrenal imaging in MEN-2 patients", "type": "in vivo, human", "details": "for MIBG Adrenal Imaging: 1 and 2 days", "method": "To display adrenal medullary abnormalities, 500 μCi of ^131 I-mIBG was injected into 6 patients from 5 families with MEN-2 and scintiscans were performed 1 and 2 days later. Percent administered dose uptake was calculated using a semioperator independent algorithm. Adrenal medullary function was assessed by plasma norepinephrine (N) and epinephrine (E) and urinary N, E, metanephrine (M), and normetanephrine (NM) levels."}}, "note": "Like-named read-outs stand apart in the source and are kept apart here."}
{"compound": "N=C(N)NCc1cccc([123I])c1", "note": "[I^123 -meta-iodobenzylguanidine]", "values": [{"measurement": "radio-composition (decomposition) on storage", "setting": "[1]; up to 4 days as sulfate salt in water or physiological buffered saline, I-123", "result": "minimal detectable radio-composition"}]}
{"compound": "N=C(N)NCc1cccc(I)c1", "note": "[meta-iodobenzylguanidine, Meta-iodobenzylguanidine]", "values": [{"measurement": "accumulation in adrenergic tissues", "setting": "[2]; compared with norepinephrine and guanethidine", "result": "accumulated in adrenergic tissues in a manner similar to norepinephrine and guanethidine"}, {"measurement": "localization", "setting": "[2]; heart and adrenal medulla", "result": "localizes in the adrenergic neurons of the heart and chromaffin granules of the adrenal medulla"}]}
{"compound": "N=C(N)NCc1cccc([125I])c1", "note": "[I-125 iodobenzylguanidine]", "values": [{"measurement": "Tissue concentration, Blood (Mean ± S.E.M.)", "setting": "[3]", "result": ".03 ± .00 % Kg Dose/g"}, {"measurement": "Tissue concentration, Heart (Mean ± S.E.M.)", "setting": "[3]", "result": "1.09 ± .06 % Kg Dose/g"}, {"measurement": "Tissue concentration, Liver (Mean ± S.E.M.)", "setting": "[3]", "result": ".36 ± .02 % Kg Dose/g"}, {"measurement": "Tissue concentration, Lung (Mean ± S.E.M.)", "setting": "[3]", "result": ".70 ± .06 % Kg Dose/g"}, {"measurement": "Tissue concentration, Muscle (Mean ± S.E.M.)", "setting": "[3]", "result": ".25 ± .02 % Kg Dose/g"}, {"measurement": "Tissue concentration, Thyroid (Mean ± S.E.M.)", "setting": "[3]", "result": ".76 ± .04 % Kg Dose/g"}, {"measurement": "Tissue concentration, Liver (Mean ± S.E.M.)", "setting": "[4]; dog, in vivo, iv, 30 min", "result": "0.34 ± .03 % Kg Dose/g"}, {"measurement": "Tissue concentration, Lung (Mean ± S.E.M.)", "setting": "[4]; dog, in vivo, iv, 30 min", "result": "0.22 ± .06 % Kg Dose/g"}, {"measurement": "Tissue concentration, Muscle (Mean ± S.E.M.)", "setting": "[4]; dog, in vivo, iv, 30 min", "result": "0.02 ± .00 % Kg Dose/g"}, {"measurement": "Tissue concentration, Thyroid (Mean ± S.E.M.)", "setting": "[4]; dog, in vivo, iv, 30 min", "result": "0.56 ± .07 % Kg Dose/g"}, {"measurement": "Tissue concentration, Adrenal Cortex (Mean ± S.E.M.)", "setting": "[4]; dog, in vivo, iv, 120 min", "result": "0.39 ± .05 % Kg Dose/g"}, {"measurement": "Tissue concentration, Adrenal Medulla (Mean ± S.E.M.)", "setting": "[4]; dog, in vivo, iv, 120 min", "result": "6.29 ± .25 % Kg Dose/g"}, {"measurement": "Tissue concentration, Blood (Mean ± S.E.M.)", "setting": "[4]; dog, in vivo, iv, 120 min", "result": "0.02 ± .00 % Kg Dose/g"}, {"measurement": "Tissue concentration, Heart (Mean ± S.E.M.)", "setting": "[4]; dog, in vivo, iv, 120 min", "result": "0.50 ± .10 % Kg Dose/g"}, {"measurement": "Tissue concentration, Liver (Mean ± S.E.M.)", "setting": "[4]; dog, in vivo, iv, 120 min", "result": ".017 ± .05 % Kg Dose/g"}, {"measurement": "Tissue concentration, Lung (Mean ± S.E.M.)", "setting": "[4]; dog, in vivo, iv, 120 min", "result": "0.46 ± .13 % Kg Dose/g"}, {"measurement": "Tissue concentration, Muscle (Mean ± S.E.M.)", "setting": "[4]; dog, in vivo, iv, 120 min", "result": "0.04 ± .00 % Kg Dose/g"}, {"measurement": "Tissue concentration, Adrenal Cortex (Mean ± S.E.M.)", "setting": "[4]; dog, in vivo, iv, 2880 min", "result": "0.10 ± .01 % Kg Dose/g"}, {"measurement": "Tissue concentration, Adrenal Medulla (Mean ± S.E.M.)", "setting": "[4]; dog, in vivo, iv, 2880 min", "result": "13.6 ± 1.1", "unit": "% Kg Dose/g"}, {"measurement": "Tissue concentration, Blood (Mean ± S.E.M.)", "setting": "[4]; dog, in vivo, iv, 2880 min", "result": "0.01 ± .00 % Kg Dose/g"}, {"measurement": "Tissue concentration, Heart (Mean ± S.E.M.)", "setting": "[4]; dog, in vivo, iv, 2880 min", "result": "0.06 ± .01 % Kg Dose/g"}, {"measurement": "Tissue concentration, Liver (Mean ± S.E.M.)", "setting": "[4]; dog, in vivo, iv, 2880 min", "result": "0.02 ± .00 % Kg Dose/g"}, {"measurement": "Tissue concentration, Lung (Mean ± S.E.M.)", "setting": "[4]; dog, in vivo, iv, 2880 min", "result": "0.03 ± .00 % Kg Dose/g"}, {"measurement": "Tissue concentration, Muscle (Mean ± S.E.M.)", "setting": "[4]; dog, in vivo, iv, 2880 min", "result": "0.02 ± .00 % Kg Dose/g"}, {"measurement": "Tissue concentration, Adrenal Cortex (Mean ± S.E.M.)", "setting": "[4]; dogs (2), i.v., 30 min, adrenal cortex", "result": "0.61 ± .02 % Kg Dose/g"}, {"measurement": "Tissue concentration, Adrenal Medulla (Mean ± S.E.M.)", "setting": "[4]; dogs (2), i.v., 30 min, adrenal medulla", "result": "5.35 ± .71 % Kg Dose/g"}, {"measurement": "Tissue concentration, Blood (Mean ± S.E.M.)", "setting": "[4]; dogs (2), i.v., 30 min, blood", "result": "0.02 ± .00 % Kg Dose/g"}, {"measurement": "Tissue concentration, Heart (Mean ± S.E.M.)", "setting": "[4]; dogs (2), i.v., 30 min, heart", "result": "0.47 ± .02 % Kg Dose/g"}, {"measurement": "Tissue concentration, Thyroid (Mean ± S.E.M.)", "setting": "[4]; dogs (2), i.v., 2 hours, thyroid", "result": "0.56 ± .05 % Kg Dose/g"}, {"measurement": "Tissue concentration, Thyroid (Mean ± S.E.M.)", "setting": "[4]; dogs (2), i.v., 48 hours, thyroid", "result": "1.27 ± .47 % Kg Dose/g"}, {"measurement": "Tissue concentration, Adrenal Cortex (Mean ± S.E.M.)", "setting": "[5]", "result": "0.42 ± .12 % Kg Dose/g"}, {"measurement": "Tissue concentration, Adrenal Medullae (Mean ± S.E.M.)", "setting": "[5]", "result": "2.69 ± .28 % Kg Dose/g"}, {"measurement": "Tissue concentration, Blood (Mean ± S.E.M.)", "setting": "[5]", "result": "0.02 ± .00 % Kg Dose/g"}, {"measurement": "Tissue concentration, Heart (Mean ± S.E.M.)", "setting": "[5]", "result": "0.64 ± .03 % Kg Dose/g"}, {"measurement": "Tissue concentration, Liver (Mean ± S.E.M.)", "setting": "[5]", "result": "0.76 ± .03 % Kg Dose/g"}, {"measurement": "Tissue concentration, Lung (Mean ± S.E.M.)", "setting": "[5]", "result": "0.17 ± .00 % Kg Dose/g"}, {"measurement": "Tissue concentration, Muscle (Mean ± S.E.M.)", "setting": "[5]", "result": "0.02 ± .00 % Kg Dose/g"}]}
{"compound": "N=C(N)NCc1cccc([131I])c1", "note": "[^131 I-mIBG, I^131 -meta-iodobenzylguanidine]", "values": [{"measurement": "decomposition on storage", "setting": "[1]; up to 4 days as sulfate salt in water or physiological saline, I-131", "result": "no detectable decomposition"}, {"measurement": "activity seen in malignant (metastatic) PHEO", "setting": "[6]; another patient with malignant (metastatic) PHEO", "result": "only ill-defined activity was seen"}, {"measurement": "scintigrams in PHEO patients", "setting": "[6]; each of eight PHEO patients, 0.5 mCi i.v., 24, 48 and 72 hours", "result": "located abnormal collections of activity"}, {"measurement": "patients in whom abnormalities correspond to PHEOs subsequently excised", "setting": "[6]; eight PHEO patients, 0.5 mCi i.v.", "result": "7 of the 8"}, {"measurement": "scintigraphic image of adrenal glands in control subjects", "setting": "[6]; five hypertensive controls without PHEO, 0.5 mCi i.v., 24, 48 and 72 hours", "result": "little or no scintigraphic image of their adrenal glands"}, {"measurement": "activity seen in malignant (metastatic) PHEO", "setting": "[6]; one patient with malignant (metastatic) PHEO", "result": "multiple areas of activity were seen in the skull, chest and abdomen"}, {"measurement": "MIBG Adrenal Imaging", "setting": "[7]; patient 1 (apparently unaffected, plasma/urine normal), 500 μCi", "result": "Nonvisualized"}, {"measurement": "MIBG Adrenal Imaging", "setting": "[7]; patient 2 (MEN 2a, plasma/urine normal), 500 μCi", "result": "Nonvisualized"}, {"measurement": "MIBG Adrenal Imaging", "setting": "[7]; patient 3 (MEN 2a, urine M raised), 500 μCi", "result": "Faint bilateral"}, {"measurement": "MIBG Adrenal Imaging", "setting": "[7]; patient 4 (MEN 2b, plasma N, urine NM raised), 500 μCi", "result": "Distinct bilateral"}, {"measurement": "MIBG Adrenal Imaging", "setting": "[7]; patient 5 (MEN 2a, plasma N,E, urine E,NM,M raised), 500 μCi", "result": "Distinct bilateral"}, {"measurement": "MIBG Adrenal Imaging", "setting": "[7]; patient 6 (MEN 2a, plasma N,E, urine E,NM,M raised), 500 μCi", "result": "Asymmetric bilateral"}, {"measurement": "scintigraphy of right adrenal gland", "setting": "[7]; patient 6, confirmed at surgery, only irregular area on CT", "result": "two distinct tumors"}, {"measurement": "adrenal imaging, patients 1 and 2", "setting": "[7]; patients 1 and 2, pattern recognized by control studies as normal", "result": "Neither patient 1 nor patient 2, who was affected with medullary thyroid carcinoma, showed adrenal imaging"}, {"measurement": "percent uptake by the adrenal glands versus hormone values", "setting": "[7]; remaining 4 patients (3-6), 500 μCi", "result": "increased proportionally to the urine and plasma hormone values"}]}
